Test results published in patent US5648366A, “Substituted pyrrolidin-3-yl-alkyl-piperidines” (Merrell Pharmaceuticals Inc., priority 1995, dated 1997).

Key:
NK-3 receptor = target: T1, NK-3 receptor (Cavia porcellus, UniProt P30098); experiment: Antagonism of iodinated tachykinin (125I-eledoisin) binding to NK3 receptor in guinea pig cerebral cortex
T1 construct: freshly collected guinea pig cerebral cortex; from tissue; host or cells: guinea pig cerebral cortex membranes
T1 sequence (P30098 1-440): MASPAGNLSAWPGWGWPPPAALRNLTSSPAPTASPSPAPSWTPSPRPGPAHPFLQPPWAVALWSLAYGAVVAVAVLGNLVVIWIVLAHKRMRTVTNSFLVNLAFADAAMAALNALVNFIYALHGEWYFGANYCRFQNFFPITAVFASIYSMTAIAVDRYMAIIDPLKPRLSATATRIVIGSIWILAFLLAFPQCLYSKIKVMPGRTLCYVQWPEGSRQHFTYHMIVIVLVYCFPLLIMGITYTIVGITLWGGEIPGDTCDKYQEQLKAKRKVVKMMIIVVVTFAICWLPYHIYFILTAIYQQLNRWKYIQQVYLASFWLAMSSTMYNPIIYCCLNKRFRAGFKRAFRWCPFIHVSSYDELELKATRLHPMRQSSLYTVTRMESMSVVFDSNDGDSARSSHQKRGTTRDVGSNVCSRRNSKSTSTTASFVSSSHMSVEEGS
Method: (§1) ANTAGONISM OF IODINATED TACHYKININ BINDING TO NK1 AND NK2 RECEPTORS BY PUTATIVE ANTAGONISTS
The NK1 receptor affinity of proposed tachykinin antagonists was evaluated in guinea pig lungs (Keystone Biologicals, Cleveland, Ohio), affinity for the NK2 receptor evaluated in HSKR-1 cells (which are mouse 3T3 fibroblasts expressing the human jejunal NK2 receptor) and NK-3 receptor affinity was evaluated in freshly collected guinea pig cerebral cortex. Tissues or cells were homogenized with a Polytron in 15 volumes of 50 mM Tris-HCl buffer (pH 7.4, 4° C.) and centrifuged. The pellet was resuspended in Tris-HCl buffer and was centrifuged; the pellet was washed twice by resuspension. The final pellet was resuspended at a concentration of 40 mg/ml for tissues (guinea pig lung and cerebral cortex) and 20 mg/ml for cells in incubation buffer and remained at room temperature for at least 15 min prior to use. […] Filter bound radioactivity was quantitated in a gamma counter. […] Specific binding was calculated by subtracting nonspecific binding from total binding. Competition of iodinated SP, NKA, or eledoisin binding by test compounds or standards was expressed as a percentage of this maximum competition. […]

NK2 receptor = experiment: Antagonism of NKA aerosol induced respiratory effects in conscious guinea pigs; assay type: in vivo, guinea pig; settings: 20 min prior to NKA aerosol (0.05%); for DYSPNEA ONSET: mean and SEM
Method: ANTAGONISM OF NKA AND CAPSAICIN INDUCED R[…] IN CONSCIOUS GUINEA PIGS
In vivo experiments were performed using male Duncan Hartley guinea pigs (250-350 g). Changes in conscious breathing patterns were monitored in four animals simultaneously using modified whole body plethysmography consisting of four small plexiglass boxes each connected to a reference box via Validyne DP 45-16 differential pressure transducers. The 4 boxes were equipped with an air supply line (also used for aerosol delivery) and an exhaust air line. Supply and exhaust lines were of the same length and narrow bore and arose from a common supply chamber and vented to a common exhaust chamber. This system was used to ensure that fluctuations in supply air and atmospheric pressure would remain in phase and be eliminated from the net signal by the differential pressure transducers. The analog pressure signals were digitalized via a Data Translation DT2821 A to D board. Data were collected at a rate of 100 samples/second/animal. Each cycle of pressure change was analyzed using the following parameters: rising and falling slope determined between minimum and maximum pressures, the ratio of rising over falling slope, and the magnitude of the change between initial trough pressure and peak cycle pressure. Using these values (and observing the animals) the pressure cycles were characterized into normal breaths, forced exhalations (apparent by abdominal heaving), significant respiratory events (SREs; usually coughs, less often sneezes or gasps which were characterized by transient, extremely large pressure increases which were distinguishable from noise) and movement/noise with a PCAT 286 running a System V UNIX operating system. Dyspnea was defined as a significant, sustained increase in plethysmograph pressure which was associated with an observable shift to labored breathing in the animal.
During the course of a typical experiment in which airway responsiveness to various bronchoconstricting agents was examined, aerosols were delivered for 19 min (0.33 ml/min) using a DeVilbiss Ultraneb 99 ultrasonic nebulizer and animals monitored during this time. Prior to nebulization, 1 min of resting breathing was collected to establish a baseline pressure. […] The vehicle for nebulization of all bronchoconstrictive agents was phosphate buffered saline (pH 7.4) which elicited no r[…] itself. Putative tachykinin antagonists were administered either (i.v.) 20 min prior to onset of aerosol exposure or orally 1 hour prior to onset (to guinea pigs after an overnight fast).
Table 6 illustrates the effects of the compounds of Example 3; Example 20A; and Example 5A on r[…] induced by NKA aerosol. […] These effects were dose dependent i.e. the higher the dose of compound, the greater attenuation of NKA-mediated effects.

NK1 receptor = NK1 receptor (Cavia porcellus, UniProt P30547); experiment: Antagonism of iodinated tachykinin (125I-substance P) binding to NK1 receptor in guinea pig lungs; design: tissue Keystone Biologicals, Cleveland, Ohio; host or cells: guinea pig lung membranes
Chain of NK1 receptor (P30547 whole entry): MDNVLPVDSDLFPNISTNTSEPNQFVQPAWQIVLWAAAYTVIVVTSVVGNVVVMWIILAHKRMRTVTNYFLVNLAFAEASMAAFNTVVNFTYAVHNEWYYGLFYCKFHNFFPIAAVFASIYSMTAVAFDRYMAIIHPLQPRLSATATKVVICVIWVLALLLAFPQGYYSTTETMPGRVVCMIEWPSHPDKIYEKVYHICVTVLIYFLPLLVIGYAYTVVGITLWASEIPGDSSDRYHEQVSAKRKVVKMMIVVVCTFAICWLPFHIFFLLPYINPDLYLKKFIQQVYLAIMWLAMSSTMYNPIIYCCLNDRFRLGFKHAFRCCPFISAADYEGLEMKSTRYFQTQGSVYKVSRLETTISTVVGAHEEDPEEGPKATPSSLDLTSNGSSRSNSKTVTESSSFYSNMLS
Method: as §1
The NK1 receptor affinity of proposed tachykinin antagonists was evaluated in guinea pig lungs (Keystone Biologicals, Cleveland, Ohio), affinity for the NK2 receptor evaluated in HSKR-1 cells (which are mouse 3T3 fibroblasts expressing the human jejunal NK2 receptor) and NK-3 receptor affinity was evaluated in freshly collected guinea pig cerebral cortex. Tissues or cells were homogenized with a Polytron in 15 volumes of 50 mM Tris-HCl buffer (pH 7.4, 4° C.) and centrifuged. The pellet was resuspended in Tris-HCl buffer and was centrifuged; the pellet was washed twice by resuspension. The final pellet was resuspended at a concentration of 40 mg/ml for tissues (guinea pig lung and cerebral cortex) and 20 mg/ml for cells in incubation buffer and remained at room temperature for at least 15 min prior to use. Receptor binding was initiated by addition of 250 ul membrane preparation in duplicate to 0.1 nM of the following radioligands: ^125 I-Bolton Hunter Lys-3 labeled substance P; ^125 iodohistidyl-1-neurokinin A; and ^125 I-Bolton Hunter labeled Lys-4 eledoisin in a final volume of 500 ul of buffer containing 50 mM Tris-HCl (pH 7.4 at room temperature), 0.1% bovine serum albumin, 2 mM MnCl2, 40 ug/ml bacitracin, 4 µg/ml leupeptin and chymostatin, 1 μM thiorphan and various doses of the putative tachykinin antagonists. Incubations were performed at room temperature for 90 min (NK1 receptor assays) or 2 hr (NK2 and NK3 receptor assays); binding was terminated by addition of 50 mM Tris-HCl buffer (pH 7.4, 4° C.) and filtration under vacuum through GF/B filters presoaked with 0.1% polyethyleneimine (NK1 receptor assays) or 0.5% bovine serum albumin (NK2 and NK3 receptor assays). Filter bound radioactivity was quantitated in a gamma counter. Nonspecific binding was defined as binding in the presence of 1 μM substance P, neurokinin A, or eledoisin. Specific binding was calculated by subtracting nonspecific binding from total binding. Competition of iodinated SP, NKA, or eledoisin binding by test compounds or standards was expressed as a percentage of this maximum competition. IC50 values (concentration required to inhibit 50% of receptor binding) were generated for each of the test compounds by nonlinear regression using an iterative curve fitting program (GraphPAD Inplot, San Diego, Calif.).

Compound: COc1cc(C(=O)N2CCC(CCN3CCC(C(N)=O)(c4ccccc4)CC3)(c3ccc(Cl)c(Cl)c3)C2)cc(OC)c1OC (stereo not drawn) [Example 3, 1-[2-[3-(3,4-dichloro-phenyl)-1-(3,4,5-trimethoxy-benzoyl)-pyrrolidin-3-yl]-ethyl]-4-phenyl-piperidine-4-carboxylic acid amide]
- affinity for NK3 receptors (in words) (NK-3 receptor): high affinity
- DYSPNEA INCIDENCE (NK2 receptor; 5 mg/kg): 86%
- DYSPNEA ONSET (NK2 receptor; 5 mg/kg): 394 ± 32 s
- DYSPNEA INCIDENCE (NK2 receptor; 10 mg/kg): 60%
- DYSPNEA ONSET (NK2 receptor; 10 mg/kg): 801 ± 104 s
- affinity for NK1 receptors (in words) (NK1 receptor): high affinity
